Measurements published in ChEMBL document CHEMBL4400519, “Indazolylketones as new multitarget cannabinoid drugs” (Eur J Med Chem, 2019).
Activity calls are given as the source filed them. The calls are words filed in the database; no cut-off is given here.

What was measured:
[1] = molecular target: T1, Cannabinoid receptor (Mus musculus) (UniProt P47746+P47936); assay: Agonist activity at cannabinoid receptor in ICR mouse vas deferens assessed as inhibition of electrically induced contractions at 10^-7 M after 10 mins in presence of CB1 antagonist AM251 relative to control; type: protein assay
T1 sequence (P47746 whole entry, looked up): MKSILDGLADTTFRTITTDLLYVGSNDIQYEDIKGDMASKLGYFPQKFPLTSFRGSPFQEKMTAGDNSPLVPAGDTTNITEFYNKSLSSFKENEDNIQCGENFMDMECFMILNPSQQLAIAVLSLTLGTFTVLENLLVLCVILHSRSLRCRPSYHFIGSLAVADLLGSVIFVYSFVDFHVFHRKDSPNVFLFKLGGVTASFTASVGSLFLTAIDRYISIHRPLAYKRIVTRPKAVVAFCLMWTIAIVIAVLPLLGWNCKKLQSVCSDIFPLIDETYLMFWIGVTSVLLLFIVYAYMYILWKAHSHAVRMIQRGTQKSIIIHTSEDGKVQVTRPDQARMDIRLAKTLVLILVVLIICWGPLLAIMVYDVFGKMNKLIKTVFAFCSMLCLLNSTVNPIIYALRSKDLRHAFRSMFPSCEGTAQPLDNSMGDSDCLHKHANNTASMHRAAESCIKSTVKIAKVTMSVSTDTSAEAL
T1 sequence (P47936 whole entry, looked up): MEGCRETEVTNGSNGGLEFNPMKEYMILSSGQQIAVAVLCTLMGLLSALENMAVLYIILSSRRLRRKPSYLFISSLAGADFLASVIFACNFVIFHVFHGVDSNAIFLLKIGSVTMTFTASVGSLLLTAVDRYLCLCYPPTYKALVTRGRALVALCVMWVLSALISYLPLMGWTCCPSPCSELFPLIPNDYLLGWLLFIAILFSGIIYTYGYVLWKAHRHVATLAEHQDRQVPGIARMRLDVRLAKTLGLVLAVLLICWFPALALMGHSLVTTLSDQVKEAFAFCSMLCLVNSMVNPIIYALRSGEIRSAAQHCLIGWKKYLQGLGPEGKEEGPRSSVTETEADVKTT

[2] = molecular target: T1, Cannabinoid receptor (Mus musculus); assay: Agonist activity at cannabinoid receptor in ICR mouse vas deferens assessed as inhibition of electrically induced contractions at 1.82 x 10^-5 M after 10 mins in presence of CB2 antagonist AM630 relative to control; type: protein assay
[3] = molecular target: T1, Cannabinoid receptor (Mus musculus); assay: Agonist activity at cannabinoid receptor in ICR mouse vas deferens assessed as inhibition of electrically induced contractions at 10^-7 M after 10 mins in presence of CB2 antagonist AM630 relative to control; type: protein assay
[4] = molecular target: T1, Cannabinoid receptor (Mus musculus); assay: Agonist activity at cannabinoid receptor in ICR mouse vas deferens assessed as inhibition of electrically induced contractions at 10^-7 M after 10 mins relative to control; type: protein assay
[5] = molecular target: T1, Cannabinoid receptor (Mus musculus); assay: Agonist activity at cannabinoid receptor in ICR mouse vas deferens assessed as inhibition of electrically induced contractions at 2.7 x 10^-6 M after 10 mins in presence of CB1 antagonist AM251 relative to control; type: protein assay
[6] = molecular target: T1, Cannabinoid receptor (Mus musculus); assay: Agonist activity at cannabinoid receptor in ICR mouse vas deferens assessed as inhibition of electrically induced contractions at 1.82 x 10^-5 M after 10 mins relative to control; type: protein assay
[7] = molecular target: T2, Cholinesterase (Homo sapiens, UniProt P06276); assay: Inhibition of human serum BChE using butyrylthiocholine as substrate by Ellman's assay
T2 sequence (P06276 whole entry): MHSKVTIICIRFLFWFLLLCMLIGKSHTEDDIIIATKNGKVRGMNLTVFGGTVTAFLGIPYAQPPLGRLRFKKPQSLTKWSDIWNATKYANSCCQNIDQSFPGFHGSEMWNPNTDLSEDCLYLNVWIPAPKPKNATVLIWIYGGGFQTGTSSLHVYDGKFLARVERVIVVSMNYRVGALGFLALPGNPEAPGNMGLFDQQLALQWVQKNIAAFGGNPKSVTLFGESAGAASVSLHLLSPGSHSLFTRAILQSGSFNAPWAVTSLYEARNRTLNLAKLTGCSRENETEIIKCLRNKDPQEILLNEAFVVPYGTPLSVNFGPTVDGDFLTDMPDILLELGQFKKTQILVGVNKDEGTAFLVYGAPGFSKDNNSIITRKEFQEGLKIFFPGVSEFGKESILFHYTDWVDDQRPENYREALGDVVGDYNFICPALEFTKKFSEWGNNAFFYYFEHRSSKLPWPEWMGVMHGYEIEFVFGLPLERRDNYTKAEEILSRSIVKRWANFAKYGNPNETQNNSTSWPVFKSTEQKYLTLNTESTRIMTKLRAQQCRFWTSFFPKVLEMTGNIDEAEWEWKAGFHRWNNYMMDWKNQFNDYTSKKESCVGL

[8] = organism: Homo sapiens; assay: Antiproliferative activity against Alzheimer's patient derived lymphoblast cells at 5 uM in presence of CB2 antagonist AM630 after 72 hrs by MTT assay; type: functional
[9] = Antioxidant activity assessed as trolox equivalent of APPH-induced radical scavenging activity by ORAC-FL assay; type: functional
[10] = molecular target: T1, Cannabinoid receptor (Mus musculus); assay: Agonist activity at cannabinoid receptor in ICR mouse vas deferens assessed as inhibition of electrically induced contractions at 2.7 x 10^-6 M after 10 mins relative to control; type: protein assay
[11] = molecular target: T1, Cannabinoid receptor (Mus musculus); assay: Agonist activity at cannabinoid receptor in ICR mouse vas deferens assessed as inhibition of electrically induced contractions at 3 x 10^-7 M after 10 mins relative to control; type: protein assay
[12] = molecular target: T1, Cannabinoid receptor (Mus musculus); assay: Agonist activity at cannabinoid receptor in ICR mouse vas deferens assessed as inhibition of electrically induced contractions at 3 x 10^-7 M after 10 mins in presence of CB2 antagonist AM630 relative to control; type: protein assay
[13] = molecular target: T1, Cannabinoid receptor (Mus musculus); assay: Agonist activity at cannabinoid receptor in ICR mouse vas deferens assessed as inhibition of electrically induced contractions at 3 x 10^-7 M after 10 mins in presence of CB1 antagonist AM251 relative to control; type: protein assay
[14] = molecular target: T1, Cannabinoid receptor (Mus musculus); assay: Agonist activity at cannabinoid receptor in ICR mouse vas deferens assessed as inhibition of electrically induced contractions at 9 x 10^-7 M after 10 mins in presence of CB1 antagonist AM251 relative to control; type: protein assay
[15] = molecular target: T3, Acetylcholinesterase (Homo sapiens, UniProt P22303); assay: Inhibition of human erythrocyte AChE using acetylthiocholine as substrate by Ellman's assay
T3 sequence (P22303 whole entry): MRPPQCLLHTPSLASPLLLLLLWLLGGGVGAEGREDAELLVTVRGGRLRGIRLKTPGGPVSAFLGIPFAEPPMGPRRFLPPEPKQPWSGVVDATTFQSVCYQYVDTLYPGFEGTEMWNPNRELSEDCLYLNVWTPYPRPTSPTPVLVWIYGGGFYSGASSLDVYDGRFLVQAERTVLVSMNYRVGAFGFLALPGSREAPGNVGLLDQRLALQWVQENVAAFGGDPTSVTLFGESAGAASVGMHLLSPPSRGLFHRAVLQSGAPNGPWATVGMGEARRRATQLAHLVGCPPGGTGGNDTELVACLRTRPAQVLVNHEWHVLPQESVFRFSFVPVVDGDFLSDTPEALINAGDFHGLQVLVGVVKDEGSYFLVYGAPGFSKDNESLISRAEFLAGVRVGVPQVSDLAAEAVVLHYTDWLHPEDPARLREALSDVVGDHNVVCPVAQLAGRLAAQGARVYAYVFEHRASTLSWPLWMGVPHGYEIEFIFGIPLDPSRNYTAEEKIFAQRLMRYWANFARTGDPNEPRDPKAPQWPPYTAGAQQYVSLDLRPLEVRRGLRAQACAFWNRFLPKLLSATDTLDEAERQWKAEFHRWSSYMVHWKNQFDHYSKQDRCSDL

[16] = organism: Homo sapiens; assay: Antiproliferative activity against Alzheimer's patient derived lymphoblast cells at 5 uM after 72 hrs by MTT assay; type: functional
[17] = molecular target: T1, Cannabinoid receptor (Mus musculus); assay: Agonist activity at cannabinoid receptor in ICR mouse vas deferens assessed as inhibition of electrically induced contractions at 8.1 x 10^-6 M after 10 mins relative to control; type: protein assay
[18] = molecular target: T1, Cannabinoid receptor (Mus musculus); assay: Agonist activity at cannabinoid receptor in ICR mouse vas deferens assessed as inhibition of electrically induced contractions at 1.82 x 10^-5 M after 10 mins in presence of CB1 antagonist AM251 relative to control; type: protein assay
[19] = molecular target: Beta-secretase 1 (Homo sapiens) (UniProt P56817); assay: Inhibition of human BACE1 at 10 uM incubated for 60 mins using rhodamine-EVNLDAEFK-quencher substrate by FRET assay
Chain of Beta-secretase 1 (Homo sapiens) (P56817 whole entry): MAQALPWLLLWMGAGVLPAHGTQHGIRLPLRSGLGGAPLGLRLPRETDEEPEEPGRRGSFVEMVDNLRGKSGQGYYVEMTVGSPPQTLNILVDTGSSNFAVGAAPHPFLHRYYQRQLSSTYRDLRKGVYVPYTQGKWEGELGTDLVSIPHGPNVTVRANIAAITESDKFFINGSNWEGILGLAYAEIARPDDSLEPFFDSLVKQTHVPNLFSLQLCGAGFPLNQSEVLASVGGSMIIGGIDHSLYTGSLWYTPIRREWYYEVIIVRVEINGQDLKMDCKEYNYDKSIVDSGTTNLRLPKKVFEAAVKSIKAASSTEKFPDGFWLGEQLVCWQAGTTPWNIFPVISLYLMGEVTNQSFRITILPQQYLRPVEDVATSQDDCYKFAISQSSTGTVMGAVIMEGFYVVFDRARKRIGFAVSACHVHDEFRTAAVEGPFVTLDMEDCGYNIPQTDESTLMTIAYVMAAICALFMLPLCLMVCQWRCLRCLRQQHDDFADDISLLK

[20] = molecular target: T1, Cannabinoid receptor (Mus musculus); assay: Agonist activity at cannabinoid receptor in ICR mouse vas deferens assessed as inhibition of electrically induced contractions at 8.1 x 10^-6 M after 10 mins in presence of CB2 antagonist AM630 relative to control; type: protein assay
[21] = Antiproliferative activity against normal human derived lymphoblast cells at 5 uM after 72 hrs by MTT assay
[22] = molecular target: T1, Cannabinoid receptor (Mus musculus); assay: Agonist activity at cannabinoid receptor in ICR mouse vas deferens assessed as inhibition of electrically induced contractions at 2.7 x 10^-6 M after 10 mins in presence of CB2 antagonist AM630 relative to control; type: protein assay
[23] = molecular target: T1, Cannabinoid receptor (Mus musculus); assay: Agonist activity at cannabinoid receptor in ICR mouse vas deferens assessed as inhibition of electrically induced contractions at 9 x 10^-7 M after 10 mins relative to control; type: protein assay
[24] = molecular target: T1, Cannabinoid receptor (Mus musculus); assay: Agonist activity at cannabinoid receptor in ICR mouse vas deferens assessed as inhibition of electrically induced contractions at 9 x 10^-7 M after 10 mins in presence of CB2 antagonist AM630 relative to control; type: protein assay
[25] = tested on: SH-SY5Y; assay: Toxicity in human SH-SY5Y cells at 20 uM after 24 hrs by MTT assay; type: cell-based
[26] = molecular target: T1, Cannabinoid receptor (Mus musculus); assay: Agonist activity at cannabinoid receptor in ICR mouse vas deferens assessed as inhibition of electrically induced contractions at 8.1 x 10^-6 M after 10 mins in presence of CB1 antagonist AM251 relative to control; type: protein assay
[27] = molecular target: T3, Acetylcholinesterase; assay: Inhibition of human erythrocyte AChE at 10 uM using acetylthiocholine as substrate by Ellman's assay
[28] = molecular target: T2, Cholinesterase; assay: Inhibition of human serum BChE at 10 uM using butyrylthiocholine as substrate by Ellman's assay
[29] = tested on: SH-SY5Y; assay: Neuroprotective activity against amyloid beta-induced neurodegeneration in human SH-SY5Y cells at 20 uM preincubated for 1 hr followed by amyloid beta addition and measured after 24 hrs in presence of CB2 antagonist AM630 by MTT assay; type: functional, cell-based
[30] = tested on: SH-SY5Y; assay: Neuroprotective activity against amyloid beta-induced neurodegeneration in human SH-SY5Y cells at 20 uM preincubated for 1 hr followed by amyloid beta addition and measured after 24 hrs by MTT assay; type: functional, cell-based
[31] = molecular target: T2, Cholinesterase; assay: Competitive inhibition of human serum BChE using butyrylthiocholine as substrate by Lineweaver-Burk plot analysis

| Compound | inhibition [1] | inhibition [2] | inhibition [3] | inhibition [4] | inhibition [5] | inhibition [6] | IC50 [7] | Activity [9] | inhibition [10] | inhibition [11] | inhibition [12] | IC50 [15] | Activity [16] | inhibition [17] | inhibition [18] | inhibition [19] | inhibition [20] | inhibition [22] | inhibition [23] | inhibition [26] | further results |
| --- | --- | --- | --- | --- | --- | --- | --- | --- | --- | --- | --- | --- | --- | --- | --- | --- | --- | --- | --- | --- | --- |
| O=C(c1cccc(Cl)c1Cl)n1nc(OCCCN2CCCCC2)c2ccccc21 | -0.7% | 85.5% | -3% | 1.4% | 15.2% | 96.6% | 0.08 µM | inactive | 27.4% | 6.2% | 0% | 17 µM | Active | 89.3% | 89.8% | 45.1% | 62.7% | 18.2% | 14.3% | 65.3% | Activity [8]: inactive; inhibition [13]: 2%; inhibition [14]: 8.7%; Activity [21]: Non-Toxic; inhibition [24]: 10.4%; Activity [25]: Toxic |
| O=C(Cc1ccc(Cl)cc1)n1nc(OCCCN2CCCCC2)c2ccccc21 | -5.5% | 96.1% | -7.8% | -4.5% | 12.4% | 94.2% | > 10 µM | inactive | 7.3% | -4.8% | -3.2% | > 10 µM | – | 67.4% | 83.5% | 50% | 86.6% | 19.7% | 0.4% | 61.8% | inhibition [27]: 43%; inhibition [13]: -6.2%; inhibition [14]: -2.2%; inhibition [28]: 46%; inhibition [24]: 2.4% |
| O=C(c1cccc(Cl)c1Cl)n1nc(OCCN2CCCC2)c2ccccc21 | -0.3% | 52.9% | 0% | 1.6% | 13% | 80.8% | 0.23 µM | 0.41 equiv | 27.8% | 5.6% | 3.4% | > 10 µM | Active | 56.3% | 80.4% | 32.6% | 30.4% | 14.2% | 17.3% | 44.8% | Activity [8]: inactive; Activity [29]: inactive; Activity [30]: Active; inhibition [13]: 3.4%; inhibition [14]: 7.1%; Activity [21]: Non-Toxic; inhibition [24]: 7.9% |
| COc1ccc(CC(=O)n2nc(OCCCN3CCCCC3)c3ccccc32)cc1 | -9.4% | 94.3% | -9.2% | -2.4% | -1.6% | 96% | > 10 µM | inactive | 42.5% | -0.3% | -9.4% | > 10 µM | Active | 88.5% | 89.7% | 60% | 68.5% | 14.7% | 16.9% | 61.9% | Activity [8]: inactive; Activity [29]: inactive; Activity [30]: Active; inhibition [27]: 43%; inhibition [28]: 42%; Activity [21]: Non-Toxic; inhibition [24]: -1.4% |
| O=C(c1ccc2ccccc2c1)n1nc(OCCCN2CCCCC2)c2ccccc21 | – | 49.1% | – | -2.1% | – | 41.9% | 2.1 µM | inactive | 1.2% | -1% | – | > 10 µM | – | 17.2% | 49.5% | 38% | 20.9% | -9.7% | 0.1% | 0.7% | inhibition [31]: Active; inhibition [27]: 33% |
| O=C(c1ccccc1Cl)n1nc(OCCN2CCCC2)c2ccccc21 | -2.8% | 29.3% | -2.5% | 1.5% | -2.2% | 75.4% | 1.3 µM | inactive | 15.1% | 4.9% | 0.3% | 9.7 µM | Active | 45.9% | 21.1% | 9% | 15.8% | 8.8% | 10.8% | -2.6% | Activity [8]: inactive; Activity [29]: inactive; Activity [30]: Active; inhibition [13]: -2.8%; inhibition [14]: -1.2%; Activity [21]: Non-Toxic; inhibition [24]: 3.5% |
| O=C(c1ccc2ccccc2c1)n1nc(OCCN2CCCCC2)c2ccccc21 | – | – | – | 0.3% | – | 18.2% | 4 µM | inactive | -2.8% | -1.2% | – | > 10 µM | – | 4% | – | 50% | – | – | -3.5% | – | inhibition [31]: Active; inhibition [27]: 43% |
| O=C(c1cccc(Cl)c1F)n1nc(OCCCN2CCCCC2)c2ccccc21 | -7.1% | 58.3% | -1.5% | 9.6% | 12.9% | 80.5% | 0.8 µM | inactive | 24.9% | 13.9% | 1.7% | > 10 µM | Active | 54.7% | 76.1% | 34% | 12.9% | -2.8% | 18.7% | 54.9% | Activity [8]: inactive; inhibition [27]: 48%; inhibition [13]: -5.3%; inhibition [14]: 4.3%; Activity [21]: Non-Toxic; inhibition [24]: -3.8%; Activity [25]: Toxic |
| O=C(c1ccccc1OCc1ccccc1)n1nc(OCCCN2CCCCC2)c2ccccc21 | -6.8% | 77.5% | -3.1% | – | -1% | 94.7% | 0.0025 µM | inactive | 31.4% | – | 1.1% | > 10 µM | Active | 74.4% | 74.8% | 38.4% | 29.7% | -3% | 6.4% | 26.4% | Activity [8]: inactive; inhibition [27]: 31%; inhibition [13]: -6.8%; inhibition [14]: -4.5%; Activity [21]: Non-Toxic; inhibition [24]: -0.5%; Activity [25]: Toxic |
| CCCC(C)(C)c1ccc2c(c1)OC(C)(C)[C@@H]1CC=C(C)C[C@@H]21 | – | – | – | – | – | – | – | – | – | – | – | – | Active | – | – | – | – | – | – | – | Activity [21]: Non-Toxic |
